Experimental data published in patent US20240139185A1, “COMPOUNDS THAT PARTICIPATE IN COOPERATIVE BINDING AND USES THEREOF” (Revolution Medicines, Inc., priority 2018, published 2024).
Where two headings read alike, the source gives them in different places. Marks after values point to notes of the source that are not given here. Blank lines part the entries; values can stand above or below the compound they belong to.

Tests used:
[1] = 18-membered ring
BRAF-GTP-KRASWT complex = target: T1, BRAF-GTP-KRASWT complex (Homo sapiens, UniProt P01116+P62937); assay: KRAS-BRAF complex disruption TR-FRET with wild-type KRAS (G12C specificity); format: biochemical; details: with CYPA
T1 construct: substitute His6-KRas WT-GTP (1-169) for His6-KRas G12C-GTP (1-169); 500 nM of tagless CypA (1-165)
Method: (§1) In this example, TR-FRET was used to measure the compound-facilitated disruption of a KRAS-BRAF complex. A mixture of tagless Cyclophilin A, His6-KRAS G12C-GMP-PNP, and GST-BRAF RAS binding domain was added to a 384-well assay plate containing compounds of the invention and incubated for 3 hours. A mixture of Anti-His Eu-W1024 and anti-GST allophycocyanin was then added and the reaction was incubated for an additional 1.5 hours. TR-FRET signal was read on an EnVision microplate reader (Perkin Elmer, Ex 320 nm, Em 665/615 nm). Compounds that facilitate disruption of a KRAS_BRAF complex were identified as those eliciting a decrease in the TR-FRET ratio relative to DMSO control wells. To determine the presenter-dependence of the compound-mediated KRAS-BRAF complex disruption, Cyclophilin A was left out of the initial incubation (see Table 5). To determine G12C specificity of the compound-mediated KRAS-BRAF complex disruption, wild-type KRAS was used instead of G12C KRAS (see Table 5).
(§2) Reagents and Instrument • Tagless CYPA; 519 μM in PBS buffer, pH 7.4 • GST BRAF; 110 μM in PBS buffer, pH 7.4 • His6-KRASG12C-GMP-PNP; 50 μM in PBS buffer, pH 7.4 • His6-KRASWT-GMP-PNP; 40 μM in PBS buffer, pH 7.4 • Anti-His Eu-W1024 (LANCE® Eu-W1024; Perkin Elmer) • Anti-GST allophycocyanin (Anti-GST IgG conjugated to SureLight®-Allophycocyanin; Perkin Elmer; Product Number AD0059G) • Test compounds, 10 mM in 100% DMSO • EnVision (Perkin Elmer) • Combi MultiDrop liquid dispenser with 8-channel small volume cassette • 384-well ProxiPlate (black)
(§3) Experimental Protocol • 1. Use Mosquito to dispense 100 nL/well of compounds (varying concentration in […]) into 384-well black ProxiPlate to make assay-ready-plate (ARP). • 2. Make assay buffer containing 25 mM Hepes pH 7.3, 100 mM NaCl, 5 mM MgCl2, 0.05% BSA, and 0.002% Tween-20. • 3. Make PRE-MIX A: delivers final concentrations of 50 nM of His6-KRas G12C-GTP (1-169) and 500 nM of tagless CypA (1-165) in assay buffer. • a. […] Read on EnVision (Ex: 320 nm; Em1: 615 nm; Em2: 665 nm). • 8. […]

[2] = target: T2, BRAF-GTP-KRAS-G12C complex (Homo sapiens, UniProt P01116+P62937, G12C); assay: KRAS-BRAF complex disruption through competition with CYPA-compound by TR-FRET; details: biochemical BRAF-KRAS G12C-GTP disruption assay EC50, with CYPA
T2 construct: 50 nM of His6-KRas G12C-GTP (1-169); 500 nM of tagless CypA (1-165)
Procedure, shortened: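 Compound-driven loss of KRAS–BRAF RBD TR-FRET signal, Eu-anti-His/APC-anti-GST pair (10/50 nM, 1.5 h), following a 3 h room-temperature preincubation of 50 nM His6-KRAS G12C-GTP and 500 nM CypA in 25 mM Hepes pH 7.3 buffer. EC50 by 4-parameter fit. Variants used wild-type KRAS in place of G12C or no CypA.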

KRAS-G12C = target: T3, KRAS-G12C (Homo sapiens, UniProt P01116+P62937, G12C); assay: Percentage of crosslinking to KRAS-G12C in the presence of BME and CYPA (TOF-MS); format: biochemical; details: 60 minute incubation; compound 2 μM, CypA 5 μM, G12C-GMPNP 0.5 μM, BME
T3 construct: CypA 1-165 (final concentration 5 μM)
Method: • 1. 10×Incubation buffer: 125 mM HEPES pH 7.4, 750 mM NaCl, 10 mM MgCl2 • 2. 50 μM Protein A stock (CypA) in incubation buffer • 3. 5 μM Protein B (G12C-GMPNP) stock in incubation buffer • 4. 20 μM compound stock in 1×Incubation buffer with 10% DMSO • 5. 25 mM BME stock solution (prepared by diluting the BME stock in Milli Q water)
CypA 1-165 (final concentration 5 μM), test compound (final concentration 2 μM) and G12C-GMPNP (final concentration 0.5 μM) were incubated in the incubation buffer ([…]) for the requisite amount of time at room temperature. The samples were quenched with formic acid, final concentration 0.5%. 10 μL aliquots were injected to TOF-MS.
Sequence of Addition for a Final Incubation Volume of 50 μL • 1. 5 μL 10×incubation buffer • 2. 28 ul H2O • 3. 2 μL from 25 mM BME stock • 4. 5 μL CypA at 50 uM • 5. 5 μL from 5 μM G12C-GMPNP • 6. 5 μL compound from 20 μM compound stock
LC-MS is performed on an Agilent 6230 TOF-LC mass spectrometer equipped with an electrospray probe operated in positive ionization mode. 10 μL samples are injected on a Sepax Bio-C4, 300 Å, 2.1×100 mm column. The mobile phase is 0.1% (vol/vol) formic acid and 0.1% 1 mM ammonium formate in 95% water, 4.8% acetonitrile (A) and 0.1% (vol/vol) formic acid and 0.1% 1 mM ammonium formate in 95% acetonitrile and 4.8% water (B). The separation is performed by a 9 min total gradient consisting of 5 min linear gradient from 25% to 50% B, and a wash at 100% B for 1.25 min, all at a flow rate of 0.6 mL/min (see attached timetable below). Mass spectrometer source conditions were capillary voltage, 4,000 V; cone voltage, 120 V; source temperature, 275° C.; scan range, 100-2,000 a.m.u. with a cycle time of 1 s.
The observed mass is generated by averaging the major peak in the total ion current (TIC). The charge-state series of the species are deconvoluted using Agilent MassHunter Bioconfirm using maximum entropy setting (range is set to 17000-23000 Da). […]

cyclophilin A (CYPA) = cyclophilin A (CYPA) (Homo sapiens, UniProt P62937); assay: CYPA-compound binary complex formation by SPR; details: read-out: CYPA Binding Affinity
Procedure, shortened: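 Steady-state fit of SPR responses gave binding affinity. Analyte series: 50 μM downward, 2-fold, 10 points, running buffer HBS-P+ (0.05% Tween20, pH7.4, 2% DMSO), 60 s on/60 s off. Surface: biotinylated CypA-Avi captured at 4 μg/ml against a reference cell, regenerated with NaOH/guanidine.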

[3] = target: T4, BRAF-GTP-KRAS-G12C complex (Homo sapiens, UniProt P01116, G12C); assay: KRAS-BRAF complex disruption TR-FRET without CYPA (presenter dependence); format: biochemical
T4 construct: 50 nM of His6-KRas G12C-GTP (1-169)
Method: as §1, §2, §3

Compound: CC(C)[Si](Oc1cc2cc(c1)-c1ccc3c(C#N)cn(c3c1)CC(C)(C)CNC(=O)[C@@H]1CCCN(N1)C(=O)[C@@H](NC(=O)OC(C)(C)C)C2)(C(C)C)C(C)C
ring closure, isolated yield ([1]; from CC(C)[Si](Oc1cc(C[C@H](NC(=O)OC(C)(C)C)C(=O)N2CCC[C@@H](C(=O)NCC(C)(C)Cn3cc(C#N)c4ccc(Br)cc43)N2)cc(B2OC(C)(C)C(C)(C)O2)c1)(C(C)C)C(C)C, cc_pd bond, Pd(dppf)Cl2.CH2Cl2/K2CO3, dioxane/H2O 5:1, 22.9 mM, 80.0 °C, 2.0 h): 53%

Compound: CC(C)[Si](Oc1cc2cc(c1)-c1ccc3c(Br)cn(c3c1)C[C@H](C)COC(=O)[C@@H]1CCCN(N1)C(=O)[C@@H](NC(=O)OC(C)(C)C)C2)(C(C)C)C(C)C
ring closure, isolated yield ([1]; from CC(C)[Si](Oc1cc(C[C@H](NC(=O)OC(C)(C)C)C(=O)N2CCC[C@@H](C(=O)O)N2)cc(-c2ccc3c(Br)cn(C[C@H](C)CO)c3c2)c1)(C(C)C)C(C)C, ester bond, EDCI/HOBt/DIEA, DCM, 122.5 mM, 25.0 °C, 16.0 h): 59%

IC50 (BRAF-GTP-KRASWT complex): > 30 µM | EC50 [2]: 0.5 to 5 µM | % Crosslinking with KRAS-G12C-GTP in presence of CYPA (KRAS-G12C): 39^‡ % | Kd (cyclophilin A (CYPA)): ≤ 5 µM | IC50 [3]: > 30 µM
Compound: CC(C)[C@@H](C(=O)N[C@H]1Cc2cc(O)cc(c2)-c2ccc3nc(-c4cccnc4)n(c3c2)CCCOC(=O)[C@@H]2CCCN(N2)C1=O)N(C)C(=O)C1CN(C(=O)CCl)C1 [Compound 169]
